Results published in PMC10141580, “Cyclic Dichalcogenides Extend the Reach of Bioreductive Prodrugs to Harness Thiol/Disulfide Oxidoreductases: Applications to seco-Duocarmycins Targeting the Thioredoxin System” (ACS Central Science, 2023).
Values joined by “and” are separate entries in the source; they are usually repeats but may differ in a detail not shown here. Equal entries are not always repeated. Where two headings read alike, the source gives them in different places.

Tested on: panel of 140 standard cancer cell lines
Test: ProliFiler-140 cancer cell line screen (CellTiterGlo, 72 h)
Format: cell-based
Experimental: Incubations were performed for 72 h before automated viability readout with CellTiterGlo (Figure 8).
End of Figure S11 (part 5 of 5): ProliFiler-140 cancer cell line screening for cytotoxicity of the prodrugs.
8-data-point dose response curves from CellTiter-Glo® viability readout.
ProliFiler-140 cell line panel part V

`COc1cc2cc(C(=O)N3C[C@@H](CCl)c4c3cc(OC(=O)N(CCC(=O)N3CCN(C)CC3)C3CCCCC3)c3ccccc43)[nH]c2c(OC)c1OC` [P-CC60-CBI-TMI] was tested, and the IC50 (MEC-1 (Blood), read-out: IC50 [M] (ProliFiler-140)) was 8.9e-08 M and 8.89e-08 M, the IC50 (MKN-1 (Stomach), read-out: IC50 [M] (ProliFiler-140)) was 1.5e-06 M and 1.53e-06 M and the IC50 (MKN-45 (Stomach), read-out: IC50 [M] (ProliFiler-140)) was 4.87e-07 M and 4.9e-07 M. The IC50 (MOLM-13 (Blood), read-out: IC50 [M] (ProliFiler-140)) was 6.1e-08 M and 6.05e-08 M, the IC50 (MOLT-4 (Blood), read-out: IC50 [M] (ProliFiler-140)) was 7.6e-08 M and 7.57e-08 M and the IC50 (MV4-11 (Blood), read-out: IC50 [M] (ProliFiler-140)) was 1.2e-08 M and 1.18e-08 M. For the same compound, the IC50 (Mia PaCA 2 (Pancreas), read-out: IC50 [M] (ProliFiler-140)) was 3.75e-07 M and 3.8e-07 M, the IC50 (NALM-6 (Blood), read-out: IC50 [M] (ProliFiler-140)) was 5.58e-08 M and 5.6e-08 M and the IC50 (NCI-H82 (Lung), read-out: IC50 [M] (ProliFiler-140)) was 7.5e-07 M. The IC50 (NCI-H292 (Lung), read-out: IC50 [M] (ProliFiler-140)) was 2.6e-07 M and 2.59e-07 M, the IC50 (NCI-H441 (Lung), read-out: IC50 [M] (ProliFiler-140)) was 2.94e-07 M and 2.9e-07 M and the IC50 (NCI-H838 (Lung), read-out: IC50 [M] (ProliFiler-140)) was 7.5e-07 M and 7.54e-07 M. The IC50 (NCI-H1048 (Lung), read-out: IC50 [M] (ProliFiler-140)) was 5.9e-08 M and 5.92e-08 M, the IC50 (NCI-H1437 (Lung), read-out: IC50 [M] (ProliFiler-140)) was 3.01e-07 M and 3e-07 M and the IC50 (NCI-H1563 (Lung), read-out: IC50 [M] (ProliFiler-140)) was 1.7e-06 M and 1.69e-06 M. The IC50 (NCI-H1573 (Lung), read-out: IC50 [M] (ProliFiler-140)) was 1.1e-06 M and 1.07e-06 M, the IC50 (NCI-H1581 (Lung), read-out: IC50 [M] (ProliFiler-140)) was 4.32e-07 M and 4.3e-07 M and the IC50 (NCI-H1703 (Lung), read-out: IC50 [M] (ProliFiler-140)) was 8.1e-07 M and 8.15e-07 M. For the same compound, the IC50 (NCI-H1838 (Lung), read-out: IC50 [M] (ProliFiler-140)) was 8.2e-07 M and 8.19e-07 M, the IC50 (NCI-H2009 (Lung), read-out: IC50 [M] (ProliFiler-140)) was 4.22e-07 M and 4.2e-07 M and the IC50 (NCI-H2110 (Lung), read-out: IC50 [M] (ProliFiler-140)) was 1.4e-07 M and 1.44e-07 M. For the same compound, the IC50 (NCI-H2286 (Lung), read-out: IC50 [M] (ProliFiler-140)) was 1.2e-07 M and 1.25e-07 M, the IC50 (NCI-N87 (Stomach), read-out: IC50 [M] (ProliFiler-140)) was 1.1e-06 M and 1.15e-06 M and the IC50 (OCI-AML3 (Blood), read-out: IC50 [M] (ProliFiler-140)) was 1.3e-07 M and 1.33e-07 M. The IC50 (OCI-AML5 (Blood), read-out: IC50 [M] (ProliFiler-140)) was 3.4e-08 M and 3.39e-08 M, the IC50 (OCI-LY19 (Blood), read-out: IC50 [M] (ProliFiler-140)) was 1.53e-08 M and 1.5e-08 M and the IC50 (OPM-2 (Blood), read-out: IC50 [M] (ProliFiler-140)) was 6.61e-07 M and 6.6e-07 M. The IC50 (OV56 (Ovary), read-out: IC50 [M] (ProliFiler-140)) was 2.02e-07 M and 2e-07 M, the IC50 (OVCAR-3 (Ovary), read-out: IC50 [M] (ProliFiler-140)) was 1e-06 M and 1.02e-06 M and the IC50 (OVCAR-3, read-out: IC50) was 1e-06 M. For the same compound, the IC50 (OVK18 (Ovary), read-out: IC50 [M] (ProliFiler-140)) was 2e-07 M, the IC50 (P31/FUJ (Blood), read-out: IC50 [M] (ProliFiler-140)) was 1.9e-07 M and 1.88e-07 M and the IC50 (PANC-1 (Pancreas), read-out: IC50 [M] (ProliFiler-140)) was 1.4e-06 M and 1.38e-06 M. The IC50 (PC3 (Prostate), read-out: IC50 [M] (ProliFiler-140)) was 5.17e-07 M and 5.2e-07 M, the IC50 (PC-9 (Lung), read-out: IC50 [M] (ProliFiler-140)) was 1.1e-07 M and 1.14e-07 M and the IC50 (RERF-LC-Ad2 (Lung), read-out: IC50 [M] (ProliFiler-140)) was 7.8e-07 M and 7.84e-07 M. For the same compound, the IC50 (RERF-LC-MS (Lung), read-out: IC50 [M] (ProliFiler-140)) was 4.59e-07 M and 4.6e-07 M, the IC50 (RKO (Colon), read-out: IC50 [M] (ProliFiler-140)) was 2.98e-07 M and 3e-07 M and the IC50 (RL95-2 (Endometrium), read-out: IC50 [M] (ProliFiler-140)) was 7.43e-07 M and 7.4e-07 M. The IC50 (RPMI 8226 (Blood), read-out: IC50 [M] (ProliFiler-140)) was 3.38e-07 M and 3.4e-07 M, the IC50 (RPMI 8226, read-out: IC50) was 3.4e-07 M and the IC50 (SCH (Stomach), read-out: IC50 [M] (ProliFiler-140)) was 3.9e-07 M and 3.87e-07 M. For the same compound, the IC50 (SCLC-21H (Lung), read-out: IC50 [M] (ProliFiler-140)) was 1.58e-07 M and 1.6e-07 M, the IC50 (SJSA-1 (Bone), read-out: IC50 [M] (ProliFiler-140)) was 3.78e-07 M and 3.8e-07 M and the IC50 (SK-BR-3 (Breast), read-out: IC50 [M] (ProliFiler-140)) was 3.7e-07 M. For the same compound, the IC50 (SK-ES-1 (Bone), read-out: IC50 [M] (ProliFiler-140)) was 3.35e-08 M and 3.4e-08 M, the IC50 (SK-LU-1 (Lung), read-out: IC50 [M] (ProliFiler-140)) was 1.6e-07 M and 1.62e-07 M and the IC50 (SK-MEL-3 (Skin), read-out: IC50 [M] (ProliFiler-140)) was 1e-06 M and 1.03e-06 M. For the same compound, the IC50 (SK-N-FI (Brain), read-out: IC50 [M] (ProliFiler-140)) was 6.81e-07 M and 6.8e-07 M, the IC50 (SK-N-MC (Brain), read-out: IC50 [M] (ProliFiler-140)) was 1.3e-08 M and 1.33e-08 M and the IC50 (SK-N-SH (Brain), read-out: IC50 [M] (ProliFiler-140)) was 7.5e-07 M and 7.45e-07 M. For the same compound, the IC50 (SK-OV3 (Ovary), read-out: IC50 [M] (ProliFiler-140)) was 4.38e-07 M and 4.4e-07 M, the IC50 (SK-OV3, read-out: IC50) was 4.4e-07 M and the IC50 (SNU840 (Ovary), read-out: IC50 [M] (ProliFiler-140)) was 6.99e-08 M and 7e-08 M. The IC50 (SNU-1 (Stomach), read-out: IC50 [M] (ProliFiler-140)) was 2.3e-07 M and 2.27e-07 M, the IC50 (SNU-16 (Stomach), read-out: IC50 [M] (ProliFiler-140)) was 7.09e-07 M and 7.1e-07 M and the IC50 (SNU-216 (Stomach), read-out: IC50 [M] (ProliFiler-140)) was 1.84e-06 M and 1.8e-06 M. The IC50 (SU-DHL-5 (Blood), read-out: IC50 [M] (ProliFiler-140)) was 5e-08 M and 4.98e-08 M, the IC50 (SW480 (Colon), read-out: IC50 [M] (ProliFiler-140)) was 3.31e-07 M and 3.3e-07 M and the IC50 (SW620 (Colon), read-out: IC50 [M] (ProliFiler-140)) was 6.99e-07 M and 7e-07 M. For the same compound, the IC50 (SW948 (Colon), read-out: IC50 [M] (ProliFiler-140)) was 6.79e-07 M and 6.8e-07 M, the IC50 (SW-1783 (Brain), read-out: IC50 [M] (ProliFiler-140)) was 4.78e-07 M and 4.8e-07 M and the IC50 (Saos-2 EC (Bone), read-out: IC50 [M] (ProliFiler-140)) was 2.34e-07 M and 2.3e-07 M. For the same compound, the IC50 (SiHa (Ovary), read-out: IC50 [M] (ProliFiler-140)) was 6.13e-07 M and 6.1e-07 M, the IC50 (T84 (Colon), read-out: IC50 [M] (ProliFiler-140)) was 9.09e-07 M and 9.1e-07 M and the IC50 (T98G (Brain), read-out: IC50 [M] (ProliFiler-140)) was 6.6e-07 M. For the same compound, the IC50 (T-47D (Breast), read-out: IC50 [M] (ProliFiler-140)) was 1e-06 M and 1.04e-06 M, the IC50 (T-47D, read-out: IC50) was 1e-06 M and the IC50 (U2OS (Bone), read-out: IC50 [M] (ProliFiler-140)) was 1.31e-07 M and 1.3e-07 M. For the same compound, the IC50 (U87MG (Brain), read-out: IC50 [M] (ProliFiler-140)) was 1.2e-06 M and 1.22e-06 M, the IC50 (U118MG (Brain), read-out: IC50 [M] (ProliFiler-140)) was 3.92e-07 M and 3.9e-07 M and the IC50 (U251MG (Brain), read-out: IC50 [M] (ProliFiler-140)) was 2e-06 M. The IC50 (U-266 (Blood), read-out: IC50 [M] (ProliFiler-140)) was 1.41e-07 M and 1.4e-07 M, the IC50 (U-937 (Blood), read-out: IC50 [M] (ProliFiler-140)) was 7.39e-08 M and 7.4e-08 M and the IC50 (ZR-75-1 (Breast), read-out: IC50 [M] (ProliFiler-140)) was 1.42e-06 M and 1.4e-06 M. The IC50 (read-out: IC50 [M] (ProliFiler-140)) was 2.36e-07 M and 2.4e-07 M.
